Results reported in paper PMC400651 (Breast Cancer Research, 2003).

Target: aryl hydrocarbon receptor (AhR) (Homo sapiens, UniProt P35869)
Test: [3H]TCDD radioligand competition in whole T47D cells
Assay type: cell-based

Sequence of aryl hydrocarbon receptor (AhR) (P35869 11-848): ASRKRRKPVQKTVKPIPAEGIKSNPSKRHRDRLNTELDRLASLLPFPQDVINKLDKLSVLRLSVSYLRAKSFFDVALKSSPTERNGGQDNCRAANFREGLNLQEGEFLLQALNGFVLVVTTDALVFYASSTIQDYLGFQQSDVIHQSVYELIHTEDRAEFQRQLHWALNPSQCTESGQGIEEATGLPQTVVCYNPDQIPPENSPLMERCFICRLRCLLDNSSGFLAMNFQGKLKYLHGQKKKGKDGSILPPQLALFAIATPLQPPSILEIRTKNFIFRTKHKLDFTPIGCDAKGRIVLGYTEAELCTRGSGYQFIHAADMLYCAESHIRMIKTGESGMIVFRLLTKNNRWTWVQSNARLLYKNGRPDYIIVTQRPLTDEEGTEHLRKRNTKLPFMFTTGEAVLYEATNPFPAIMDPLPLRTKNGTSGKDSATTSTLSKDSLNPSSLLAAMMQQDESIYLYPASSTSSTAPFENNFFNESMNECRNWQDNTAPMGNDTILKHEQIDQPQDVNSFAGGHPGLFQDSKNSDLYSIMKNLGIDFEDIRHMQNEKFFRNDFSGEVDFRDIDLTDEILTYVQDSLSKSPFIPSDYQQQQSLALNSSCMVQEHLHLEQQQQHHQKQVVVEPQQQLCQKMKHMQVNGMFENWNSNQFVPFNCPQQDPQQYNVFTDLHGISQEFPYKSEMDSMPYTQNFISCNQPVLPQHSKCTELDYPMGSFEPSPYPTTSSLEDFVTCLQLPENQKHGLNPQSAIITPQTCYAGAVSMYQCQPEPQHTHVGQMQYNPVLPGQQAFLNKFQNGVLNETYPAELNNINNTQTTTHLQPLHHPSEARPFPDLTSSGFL

**Q.** With `O=C(O)/C=C/c1ccc(O)c(O)c1` [caffeic acid] as the compound, how does the IC50 read?
**A.** 158 nM
